# According to the supplement of paper PMC13380429:
# ± gives the standard deviation of the averaged measurements.
# Experiments:
# Conditions in all cases: 72 h
# Vero E6 [1] = assay: cell viability relative to DMSO; higher = less toxic
# U2OS [2] = assay: as above
# Calu-3 [3] = assay: as above
# HepG2 [4] = assay: as above
# Caco-2 [5] = assay: as above
# Vero E6 [6] = assay: relative viability EC50 (midpoint between 100% and the lowest measured viability); higher = less toxic
# U2OS [7] = assay: as above
# Calu-3 [8] = assay: as above
# HepG2 [9] = assay: as above
# Caco-2 [10] = assay: as above
# Vero E6 [11] = assay: drug sensitivity score (DSS) for viability; higher = more toxic; extreme values may be limits of the assay
# U2OS [12] = assay: as above
# Calu-3 [13] = assay: as above
# HepG2 [14] = assay: as above
# Caco-2 [15] = assay: as above
Compound,cell viability (Vero E6 [1]; 1 nM),cell viability (Vero E6 [1]; 10 nM),cell viability (Vero E6 [1]; 100 nM),cell viability (Vero E6 [1]; 1000 nM),cell viability (Vero E6 [1]; 10000 nM),cell viability (U2OS [2]; 1 nM),cell viability (U2OS [2]; 10 nM),cell viability (U2OS [2]; 100 nM),cell viability (U2OS [2]; 1000 nM),cell viability (U2OS [2]; 10000 nM),cell viability (Calu-3 [3]; 1 nM),cell viability (Calu-3 [3]; 10 nM),cell viability (Calu-3 [3]; 100 nM),cell viability (Calu-3 [3]; 1000 nM),cell viability (Calu-3 [3]; 10000 nM),cell viability (HepG2 [4]; 1 nM),cell viability (HepG2 [4]; 10 nM),cell viability (HepG2 [4]; 100 nM),cell viability (HepG2 [4]; 1000 nM),cell viability (HepG2 [4]; 10000 nM),cell viability (Caco-2 [5]; 1 nM),cell viability (Caco-2 [5]; 10 nM),cell viability (Caco-2 [5]; 100 nM),cell viability (Caco-2 [5]; 1000 nM),cell viability (Caco-2 [5]; 10000 nM),relative viability EC50 (Vero E6 [6]),relative viability EC50 (U2OS [7]),relative viability EC50 (Calu-3 [8]),relative viability EC50 (HepG2 [9]),relative viability EC50 (Caco-2 [10]),drug sensitivity score (Vero E6 [11]),drug sensitivity score (U2OS [12]),drug sensitivity score (Calu-3 [13]),drug sensitivity score (HepG2 [14]),drug sensitivity score (Caco-2 [15])
CC(=O)c1ccc2c(c1)N(CCCN1CCN(CCO)CC1)c1ccccc1S2 [acetophenazine],104%,98.2%,106%,99%,82.6%,93.6%,100%,96.1%,98.2%,91.3%,107%,110%,95.3%,108%,88.7%,107%,98.9%,91.1%,90.9%,90.4%,88.8%,103%,95.4%,97.2%,97.7%,> 10 µM,> 10 µM,> 10 µM,> 10 µM,> 10 µM,0.5,0,0,0,0
O=C(c1ccc2nccnc2c1)N1CCCCC1 [ampalex],96.3%,96.8%,98.8%,93.1%,94%,98.3%,102%,94.8%,99.7%,102%,97.4%,107%,95.5%,96.6%,100%,103%,99.6%,108%,102%,102%,97.6%,100%,94.5%,103%,101%,> 10 µM,> 10 µM,> 10 µM,> 10 µM,> 10 µM,0,0,0,0,0
Nc1cc(Cl)c(N=C2NCCN2)c(Cl)c1 [apraclonidine],108%,89.1%,101%,95.2%,98.6%,96.4%,101%,94.8%,101%,102%,93.6%,100%,106%,106%,98.2%,96.5%,96.7%,105%,92.3%,96.5%,104%,92.7%,110%,111%,96.6%,> 10 µM,> 10 µM,> 10 µM,> 10 µM,> 10 µM,0,0,0,0,0
COc1cc(C[C@H]2C(=O)OC[C@@H]2Cc2ccc(OC)c(OC)c2)ccc1O [arctigenin],96%,98.2%,89.8%,100%,95%,101%,101%,98.3%,92%,86%,112%,96.9%,103%,97.9%,89.3%,93.7%,94.8%,96.6%,77.3%,21%,96.2%,98.9%,94.5%,84.4%,77.1%,> 10 µM,> 10 µM,> 10 µM,1.44 µM,> 10 µM,0,0.4,0,7.8,2.3
CC[C@H](C)[C@H](N)C1=N[C@H](C(=O)N[C@@H](CC(C)C)C(=O)N[C@H](CCC(=O)O)C(=O)N[C@H](C(=O)N[C@H]2CCCCNC(=O)[C@H](CC(N)=O)NC(=O)[C@@H](CC(=O)O)NC(=O)[C@H](Cc3cnc[nH]3)NC(=O)[C@@H](Cc3ccccc3)NC(=O)[C@H]([C@@H](C)CC)NC(=O)[C@@H](CCCN)NC2=O)[C@@H](C)CC)CS1 [bacitracin],102%,96.2%,103%,114%,110%,95.8%,96.3%,98.9%,98.9%,102%,103%,96.4%,97.7%,99.5%,97.8%,100%,99%,99.4%,103%,104%,104%,104%,90.4%,106%,119%,> 10 µM,> 10 µM,> 10 µM,> 10 µM,> 10 µM,0,0,0,0,0
CC1(C)S[C@@H]2[C@H](NC(=O)Cc3ccccc3)C(=O)N2[C@H]1C(=O)O [benzylpenicillin],99.5%,97%,99%,98%,107%,96.6%,101%,101%,104%,104%,88.5%,104%,98.8%,93.4%,94.2%,95.9%,94%,116%,99%,98.2%,80.1%,101%,97.6%,95.3%,106%,> 10 µM,> 10 µM,> 10 µM,> 10 µM,> 10 µM,0,0,0,0,0
CCCCOC(=O)c1cc2c(cn1)[nH]c1ccccc12 [beta-CCB],99.5%,97.3%,101%,98.7%,102%,102%,111%,99.3%,105%,96%,92.2%,93%,107%,106%,91.5%,117%,118%,105%,98.4%,96%,95.1%,95.5%,106%,94.9%,88.9%,> 10 µM,> 10 µM,> 10 µM,> 10 µM,> 10 µM,0,0,0,0,0.1
CC(C)(C)[C@]1(O)CC2OC(=O)CC23C(=O)OC2OC(=O)[C@H](O)C231 (stereo not given in full) [bilobalide],104%,104%,105%,96.6%,103%,94.7%,104%,94%,98.5%,97.7%,101%,98.9%,109%,108%,116%,95.1%,97.1%,104%,117%,108%,98%,97.6%,97.2%,107%,89.7%,> 10 µM,> 10 µM,> 10 µM,> 10 µM,> 10 µM,0,0,0,0,0
CCN1CCN(c2cc(-c3ccc(F)cc3)c3c(n2)CCCCCC3)CC1 [blonanserin],98.2%,101%,95%,93.2%,102%,100%,97.3%,96.4%,103%,92.9%,89.4%,93.4%,94.5%,111%,92.7%,95.1%,88%,92.3%,92.9%,92.9%,94%,108%,98.3%,102%,95.5%,> 10 µM,> 10 µM,> 10 µM,> 10 µM,> 10 µM,0,0,0,0,0
O=C1C=Cc2cc(Br)ccc2C1=O [bonaphthone],95.5%,98.6%,93.5%,99.5%,102%,101%,96.1%,103%,101%,85.6%,116%,104%,94.3%,88%,99.1%,101%,117%,97.5%,107%,94.2%,87.2%,86.3%,97.9%,102%,94.4%,> 10 µM,> 10 µM,> 10 µM,> 10 µM,> 10 µM,0,0.1,0.8,0,0
CCCC[C@H](NC(C)=O)C(=O)N[C@H]1CC(=O)NCCCC[C@@H](C(=O)O)NC(=O)[C@H](Cc2c[nH]c3ccccc23)NC(=O)[C@H](CCCNC(=N)N)NC(=O)[C@@H](Cc2ccccc2)NC(=O)[C@H](Cc2c[nH]cn2)NC1=O [bremelanotide],100%,102%,108%,99.3%,107%,99.9%,102%,95%,104%,101%,99.1%,104%,90.8%,100%,96.2%,115%,118%,95.7%,102%,98.9%,114%,94.4%,85.7%,90.8%,117%,> 10 µM,> 10 µM,> 10 µM,> 10 µM,> 10 µM,0,0,0,0,0
O=C(NCc1ccccc1)OCCO [buramate],100%,102%,111%,92%,101%,99.5%,100%,99.7%,100%,100%,99.7%,97.3%,95.8%,94.9%,91.5%,106%,97.8%,104%,86.8%,85.8%,96.1%,105%,89.9%,102%,88.1%,> 10 µM,> 10 µM,> 10 µM,> 10 µM,> 10 µM,0,0,0,1,0
C[S+](C)CC[C@H](N)C(=O)O [cabagin],92.1%,99.5%,85.3%,101%,108%,97.9%,92.3%,101%,94.7%,100%,103%,84.8%,85.1%,86.3%,103%,95.6%,99.5%,103%,102%,98.5%,90.6%,97.6%,109%,97.3%,99.6%,> 10 µM,> 10 µM,> 10 µM,> 10 µM,> 10 µM,0,0,0,0,0
O=C([O-])C(O)[C@H](O)[C@@H](O)[C@H](O)[C@H](O)CO.O=C([O-])C(O)[C@H](O)[C@@H](O)[C@H](O)[C@H](O)CO.[Ca+2] (stereo not given in full) [calcium-gluceptate],97.2 ± 7.6%,85.1 ± 15%,91.5 ± 2.7%,82.3 ± 16%,108.3 ± 0.49%,98.9%,89.9%,101%,95.3%,106%,138 ± 44%,99 ± 6.2%,101 ± 7.8%,94.2 ± 20%,97.4 ± 1.1%,100 ± 12%,95.1 ± 23%,103 ± 6.7%,100 ± 4%,100 ± 8%,95.7 ± 8%,93.6 ± 0.71%,92.9 ± 8.3%,98.8 ± 2.1%,103.5 ± 0.14%,> 10 µM,> 10 µM,> 10 µM,> 10 µM,> 10 µM,0,0,0,0,0
